Data set [1] deals with C57BL/6J mouse dorsal skin. As to the kind of experiment: Assay for hair regeneration in mice (topical treatment of shaved telogen dorsal skin). The note with it: for Rapid anagen entry on whole dorsal telogen skin: among treated mice.
Description: Anagen in black mice is macroscopically recognizable by the melanin pigment visible through the skin, as the melanogenic activity of follicular melanocytes is strictly coupled to the anagen stage of the hair cycle.
All compounds were tested in both male and female mice. Every experiment was repeated independently at least 2 times. Some treatments with different agents were performed concurrently with shared control arms. C57BL/6J male mice were obtained at 6 or 8 weeks of age from Jackson Laboratories (Bar Harbor, ME). C57BL/6J female mice were obtained at 8 weeks of age from Jackson Laboratories (Bar Harbor, Me.). Mice were fed a standard chow diet and provided ad libitum access to food and water throughout the study. Mice were shaved dorsally in telogen, i.e., postnatal days of about 43-45 for males (unless otherwise indicated) and Day 58 for females, respectively. Vehicle control (25 μL DMSO, unless otherwise indicated) or test compounds (in 25 μL DMSO, unless otherwise indicated) were topically applied on the shaved skin every other day (unless otherwise described) for the duration of the experiments (3-6 weeks). Appearance of skin pigmentation and hair growth were monitored and documented by photos and videos. Progression was also assigned a value from 0 to 100 based on pigmentation levels and hair shaft density, with 0 indicating no hair growth (and no pigmentation) and higher number corresponding to darker skin and larger areas of dense hair growth. […] The vehicle DMSO was also mixed with PLO base for topical application.
The test system of data set [2] is Beclin 1 S91 phosphorylation. Kind of data set: Western blot of treated mouse skin: phosphorylated Beclin 1 S91. In kind it is in vivo. The protocol:
(§1) Male mice were shaved and treated every other day starting on Postnatal Day 43. After 5 days, telogen skin samples were harvested and stage confirmed. Mouse skin tissue lysate was prepared by homogenization in T-PER Tissue Protein Extraction Buffer (Thermo Scientific, 78510) with protease inhibitors (Roche, 11836153001) and phosphatase inhibitors (Sigma, P5726) by FastPrep-24 (MP Biomedicals). Tissue and cell debris were removed by centrifugation and the lysate was boiled for 5 min in 1×SDS loading buffer containing 5% β-mercaptoethanol. Samples were then subjected to SDS-PAGE on NuPAGE Novex 12% Bis-Tris gels (Invitrogen, NP0343BOX), and western blotting was carried out with antibodies against LC3 (Novus, NB100-2220), p62 (Sigma, P0068), Phospho-Beclin-1 (Ser15) (corresponding to Ser14 in mouse) (Cell Signaling, 84966), Phospho-Beclin-1 (Ser93) (corresponding to Ser91 in mouse) (Cell Signaling, 14717), Beclin-1 (Abcam, ab207612), or GAPDH (Ambion, AM4300).
(Immunoblotting shows a protein as a band on a membrane.)

In another data set the test system is p62 transcript. Kind of data set: Quantitative RT-PCR of p62 transcript in treated skin. It is filed as in vivo, mouse. The note with it: 24 hours post-treatment, B2m internal control. On the procedure:
At 24 hours post-treatment, telogen skin samples were harvested and total RNA was isolated using TRIzol reagent (Invitrogen) from whole thickness mouse skin tissue. cDNA was synthesized using iScript Reverse Transcription Supermix (Bio-Rad). iTaq Universal SYBR Green Supermix (Bio-Rad) and a Bio-Rad CFX Connect instrument were used for quantitative RT-PCR. The primer sequences used for RT-qPCR are as follows: […]

The subject of another data set is p62/SQSTM1. As to the kind of experiment: Western blot of treated mouse skin: p62. It is filed as in vivo. To be noted: treated mouse telogen skin. The protocol:
(§2) Male mice were shaved and treated every other day starting on Postnatal Day 43. After 5 days, telogen skin samples were harvested and stage confirmed. […] Tissue and cell debris were removed by centrifugation and the lysate was boiled for 5 min in 1×SDS loading buffer containing 5% β-mercaptoethanol.

Data set [3] deals with Beclin 1 S14 phosphorylation. As to the kind of experiment: Western blot of treated mouse skin: phosphorylated Beclin 1 S14. The note with it: Day 5 post-treatment. In kind it is in vivo. On the procedure:
as §2

Another data set concerns LC3. Kind of data set: Western blot of treated mouse skin: LC3. It is filed as in vivo. The note with it: telogen skin of mice treated topically 5 days. The protocol: as §2
The test system of data set [4] is autophagy related markers. Kind of data set: Western blot analysis of autophagy related markers in telogen skin. In kind it is in vivo, mouse. The protocol: as §1
The subject of data set [5] is aged C57BL/6J mice. As to the kind of experiment: Topical treatment of shaved aged mice (pilot experiments). In kind it is in vivo, mouse. To be noted: pilot experiments on aged mice (data not shown). The protocol:
For oral α-KB treatment, aged male and female C57BL/6J mice were obtained at 87 weeks of age (NIA aged rodent colonies). Mice were housed in a controlled SPF facility (22±2° C., 6:00-18:00, 12 h/12 h light/dark cycle) at UCLA. […] For topical α-KB treatment, aged male C57BL/6J mice were obtained at 21 months of age (NIA aged rodent colonies), shaved the following week, and topically treated with α-KB (32 mM) every other day for one month. All experiments were approved by the UCLA Chancellor's Animal Research Committee.

The subject of data set [6] is aged C57BL/6J mice. As to the kind of experiment: Oral α-KB treatment of aged mice (hair loss / hair coating). In kind it is in vivo, mouse. To be noted: 8 mM in drinking water over 30 weeks, aged female mice, 131 weeks of age. On the procedure: For oral α-KB treatment, aged male and female C57BL/6J mice were obtained at 87 weeks of age (NIA aged rodent colonies). Mice were housed in a controlled SPF facility (22±2° C., 6:00-18:00, 12 h/12 h light/dark cycle) at UCLA. […] Treatment with either water (vehicle control), or α-KB (90 mg/kg bodyweight) in drinking water, started when mice were at 101 weeks of age. For topical α-KB treatment, aged male C57BL/6J mice were obtained at 21 months of age (NIA aged rodent colonies), shaved the following week, and topically treated with α-KB (32 mM) every other day for one month. All experiments were approved by the UCLA Chancellor's Animal Research Committee.

The subject of another data set is hair follicles. The note with it: treatment group vs control. The source says: Mouse dorsal skin was shaved before being collected for histological and molecular analyses. Full-thickness skin tissue was then fixed in 10% formalin solution (Sigma, HT501128) overnight and dehydrated for embedding in paraffin. […] Images were captured by Leica Aperio ScanScope AT brightfield system at ×20 magnification.

Entries after “also recorded” stand apart in the source; their conditions may differ.

As to `NC(=O)c1ncn([C@@H]2O[C@H](COP(=O)(O)O)[C@@H](O)[C@H]2O)c1N` [AICAR, 5-aminoimidazole-4-carboxamide ribonucleotide], the “Rapid anagen entry on whole dorsal telogen skin” value in [1] was “never”. For the same compound, the Hair regeneration result in [1] (male mice shaved Postnatal Day 44, topical 16 mM every other day, Day 41 post-treatment) was “induces hair regeneration; also recorded: stimulated”.
For the compound `C=CCNc1ncnc2ccc(Br)cc12` [SMER28], the “Beclin 1 S91 phosphorylation (AMPK-dependent)” value in [2] is recorded as “not increased”. The “p62 transcript levels (quantitative RT-PCR)” value with p62 transcript is “increased”. The “p62 expression (Western blot)” value in the data set with p62/SQSTM1 is “increased”. In addition, the “Beclin 1 S14 phosphorylation (mTOR-dependent)” value in data set [3] is reported as “not increased”. For the same compound, in the data set on LC3, the “LC3 expression (Western blot)” value was “increased”. The “Rapid anagen entry on whole dorsal telogen skin” value in data set [1] is on record as “observed from time to time”. Moreover, the Hair regeneration result is on record as “greatly induced hair regeneration” in data set [1] (male mice shaved Postnatal Day 45, topical 1 mM daily, Day 23 post-treatment) and “induced hair regeneration” in data set [1] (mice shaved Postnatal Day 51, topical 2 mM every other day, Day 20 post-treatment).
As to `Cc1cc(Nc2cc(Cl)nc(Oc3ccc([N+](=O)[O-])cc3)n2)n[nH]1` [autophinib], the “Effect of co-treatment on hair regeneration by α-KG (64 mM)” value in data set [1] (autophinib 4 mM, male mice shaved Postnatal Day 53, topical every other day, Day 20 post-treatment) is “inhibits hair regeneration by α-KG”. Also, in data set [1] (autophinib 4 mM, mice shaved Postnatal Day 51, topical every other day, Day 20 post-treatment), the “Effect of co-treatment on SMER28 (2 mM) induced hair regeneration” value is recorded as “inhibited; also recorded: prevented hair regeneration by SMER28”.
For `CO/C1=C\C(C)=C\[C@@H](C)[C@@H](O)[C@@H](C)C/C(C)=C/C=C/[C@H](OC)[C@@H]([C@@H](C)[C@@H](O)[C@H](C)[C@@]2(O)C[C@@H](O)[C@H](C)[C@@H](C(C)C)O2)OC1=O` [bafilomycin A1], in data set [1] (bafilomycin 200 μM, male mice shaved Postnatal Day 52, topical every other day, Day 21 post-treatment), the “Effect of co-treatment on hair regeneration by α-KG (64 mM)” value is reported as “inhibits hair regeneration by α-KG”.
For `CN(C)C(=N)N=C(N)N` [metformin], in [4] (topical treatment of mouse skin), the Autophagy induction result is “similarly induced”. For the same compound, in data set [1], the “Rapid anagen entry on whole dorsal telogen skin” value is on record as “never”. For the same compound, the Hair regeneration result in [1] (male mice shaved Postnatal Day 43, topical 160 mM every other day, vehicle H2O, Day 48 post-treatment) is reported as “induces hair regeneration; also recorded: similarly induced”.
`CC[C@H]1/C=C/C=C/C[C@@H](C)[C@H](O)[C@@](C)(O)C(=O)[C@@H](C)[C@H](O)[C@@H](C)C(=O)[C@@H](C)[C@H](O)[C@@H](C)/C=C/C(=O)O[C@@H]2[C@H](C)[C@H](CC1)O[C@]1(CC[C@H](C)[C@H](C[C@@H](C)O)O1)[C@H]2C` [oligomycin]: the “Beclin 1 S91 phosphorylation (AMPK-dependent)” value in data set [2] was “increased”. For the same compound, the “Beclin 1 S14 phosphorylation (mTOR-dependent)” value in [3] is on record as “increased”. In addition, in the data set with LC3, the “LC3 expression (Western blot)” value is recorded as “Increased autophagy”. The “Rapid anagen entry on whole dorsal telogen skin” value in [1] is listed as “observed from time to time”. Besides, in [1] (female mice shaved Postnatal Day 58, topical 10 μM every other day, Day 26 post-treatment), the “Hair regeneration in female mice” value is given as “stimulate hair regeneration”. For the same compound, the Hair regeneration result in data set [1] (male mice shaved Postnatal Day 44, topical 100 μM every other day, Day 23 post-treatment) is “similarly promoted hair regeneration”; in data set [1] (male mice shaved Postnatal Day 44, topical 100 μM every other day, Day 23 post-treatment, listed as Oligomycin), “induces hair regeneration”.
On to `CO[C@H]1C[C@@H]2CC[C@@H](C)[C@@](O)(O2)C(=O)C(=O)N2CCCC[C@H]2C(=O)O[C@H]([C@H](C)C[C@@H]2CC[C@@H](O)[C@H](OC)C2)CC(=O)[C@H](C)/C=C(\C)[C@@H](O)[C@@H](OC)C(=O)[C@H](C)C[C@H](C)/C=C/C=C/C=C/1C` [rapamycin], for which, in data set [1] (topical 16 μM (data not shown)), the Adverse skin effect result was “hair loss and open wounds”.
As for `CCC(=O)C(=O)O` [α-KB, α-ketobutyrate], the “Hair growth / regeneration in shaved aged animals” value in the data set on aged C57BL/6J mice [5] is recorded as “only moderately promoted hair growth”. Further, the “Phosphorylated Beclin 1 (Western blot)” value in [4] (telogen skin of mice treated 5 days) is “elevated”. In addition, the “Hair loss / hair coating in aged mice” value in the data set on aged C57BL/6J mice [6] was “negates hair loss; also recorded: greatly improved hair coating”. Also, the “LC3 expression (Western blot)” value with LC3 is reported as “elevated”. Also, the “Rapid anagen entry on whole dorsal telogen skin” value in [1] is given as “never”. The Hair regeneration entry in [1] (male mice shaved Postnatal Day 44, topical 32 mM every other day, Day 39 post-treatment) is “induces hair regeneration; also recorded: substantially induced skin pigmentation and hair regeneration”.
Regarding `O=C(O)CCC(=O)C(=O)O` [α-KG, α-ketoglutarate], the “Follicles and proliferation marker Ki-67 expression” value in the data set with hair follicles is “More follicles and high proliferation marker Ki-67 expression”. Also, the “Hair growth / regeneration in shaved aged animals” value in the data set with aged C57BL/6J mice [5] was “did not visibly increase”.

The values above are taken from patent US20210145833A1, “Methods and Compositions for Hair Growth by Activating Autophagy” (The Regents of the University of California, priority 2018, published 2021).
